Publication PMC5893419 (Bioorganic & medicinal chemistry letters, 2018)
In brackets after ≈: the same amount, converted by molar mass.

Experiments:
[1] = system: Staphylococcus spp.; assay: Antistaphylococcal activity, summary of broth microdilution MICs; assay type: cell-based
[2] = system: MRSA COL; assay: microbe, parasite or virus in culture; conditions: Staphylococcus aureus, 20 h
[3] = system: Micrococcus luteus SK58; assay: microbe, parasite or virus in culture; assay type: cell-based
[4] = system: methicillin-resistant Staphylococcus aureus (MRSA); conditions: in vitro growth of MRSA; cited from earlier work
[5] = system: VAN-resistant S. aureus (VRSA); conditions: against VRSA; cited from earlier work
[6] = range over staphylococcal strains of Table 1
[7] = range over staphylococcal strains, converted from μM

In the case of `CCCCCCCSSC(=S)N(CC)CC` [1i], the “MIC range, antistaphylococcal activity” value [1, 6] is reported as 2 to 4 µM and the “MIC range, antistaphylococcal activity” value [1, 7] is reported as 0.6 to 1.2 µg/mL.
In the case of `CN[C@H](CC(C)C)C(=O)N[C@H]1C(=O)N[C@@H](CC(N)=O)C(=O)N[C@H]2C(=O)N[C@H]3C(=O)N[C@H](C(=O)N[C@H](C(=O)O)c4cc(O)cc(O)c4-c4cc3ccc4O)[C@H](O)c3ccc(c(Cl)c3)Oc3cc2cc(c3O[C@@H]2O[C@H](CO)[C@@H](O)[C@H](O)[C@H]2O[C@H]2C[C@](C)(N)[C@H](O)[C@H](C)O2)Oc2ccc(cc2Cl)[C@H]1O` [vancomycin], the MIC [2] is reported as 2 µg/mL (≈ 1.38 µM).
For `CCCCCCCCSSC(=S)N(CC)CC` [1j, 1-[(diethylcarbamothioyl)disulfanyl]octane], the MIC [3] was greater than 32 µM, the “MIC range, antistaphylococcal activity” value [1, 6] was 2 to 4 µM and the “MIC range, antistaphylococcal activity” value [1, 7] was 0.6 to 1.2 µg/mL.
In the case of `CCN(CC)C(=S)SSC(=S)N(CC)CC` [disulfiram], the “minimum inhibitory concentration (MIC) range” value [4] is given as 4 to 32 µg/mL and the “interaction with vancomycin (VAN)” value [5] is given as “synergism”.
